Experimental data published in PMC3509269 (The Analyst, 2012).

Tested on: Calf thymus DNA
Assay type: biochemical
Details: 0.2 mM, negative control, under the assay conditions (Fig. S8)

In the case of `C1CCOC1` [THF], the “SWV peak increases (DNA damage signal)” value is reported as “did not show SWV peak increases”.
